This is an account of results in patent US10729710B2, “Catecholamine prodrugs for use in the treatment of Parkinson's disease” (H. Lundbeck A/S, priority 2017, dated 2020).

Counter-ions that a name gives are not always drawn.

The test system of series [1] is hepatocytes from human. Put plainly: Conversion to compound (I) in human hepatocytes. It is filed as in vitro ADME. To be noted: 1 μg/mL, 37° C., 0.25-60 minutes, FIG. 7b. Here is the method: (§1) The cell concentration at incubation was 1×10^6 viable cells/mL. The incubations were performed in glass tubes at 37° C. with a total incubation volume of 3.5 mL and with duplicate incubations for each test item. The 3.5 mL of hepatocyte suspension was equilibrated for 10 minutes in a water bath set to 37° C. where after the incubations were initiated by adding 3.5 μL of a stock solution of the test item in DMSO (Dimethyl sulfoxide) and gently inverting the tubes. The final solvent concentration in the incubations was 0.1% DMSO. Samples of 600 μL were withdrawn from the incubations at the pre-determined time points of 0.25, 5, 15, 30 and 60 minutes after ensuring homogeneity of hepatocyte suspensions. The withdrawn volume was added to 1 mL Nunc cryo tubes on wet ice containing 60 μL of ice cold ascorbic acid (100 mg/mL) and 30 μL of ice cold 100 mM saccharic acid 1.4-lactone in 0.5 M citric acid. The tubes were mixed and 35 μL of a solution of ice cold 20% formic acid was added. The tubes were mixed thoroughly and stored at −80° C. awaiting analysis. Analysis method and Instrumentation used for analysis of (I) from dosing (Id-ia), (Id-ib), (Id-iia) and (Id-iib), were the one described in Examples 4 and 5 below in the section “Instrumentation used for analysis of compound (I) from dosing of compounds (Ic), (Id-ia), (Id-ib), (Id-iia), (Id-iib), (Id-iab) and (Id-iiab).”
(§2) Analysis method and Instrumentation used for analysis of (I) from dosing (Id-iab) and (Id-iiab) consisted of mixing equal aliquots of the samples and precipitation solution (acetonitrile (MeCN) with 10% methanol (MeOH) and 1% formic acid), followed by centrifugation at 4° C. at 16000 g for 10 minutes. Supernatants were collected and analysed by LC-MS/MS. Mass spectrometer: Waters Acquity—Waters Xevo TQ-MS. Analytical column: Acquity UPLC HSS T3, 100×2.1 mm, 1.8 μm. Mobile phase A: 0.2% formic acid in water. Mobile phase B: 0.2% formic acid in acetonitrile. Gradient run from 95/5% to 60/40 in 5 min. Flow rate 0.3 mL/min. MRM monitoring of (I) in the study samples and in the analytical standards.

Series [2] relates to hepatocytes from rat. Put plainly: Conversion to compound (I) in rat hepatocytes. It is filed as in vitro ADME. To be noted: 1 μg/mL, 37° C., 0.25-60 minutes, FIG. 7a. Here is the method:
as §1, §2

The nature of series [3]: Stability of the disulfate in acidic conditions (LCMS). It is filed as physicochemical. Conditions: LCMS with acidic eluent.
The nature of series [4]: PK experiments in rats: plasma compound (I) after oral dosing of prodrugs. Conditions: Wistar rats, FIG. 2, doses equal to 287 μg/kg of compound (I). It is filed as in vivo, Han Wistar rats. Here is the method: Plasma was placed on water-ice following collection. Final storage at approximately −70° C.
Mobile phase B: Acetonitrile. […] Flow rate 0.5 mL/min.
The rats had unrestricted access to the diet.
Mobile phase B: Acetonitrile+0.2% formic acid. […] Flow rate 0.3 mL/min.
Han Wistar rats were supplied by Envigo, UK. […] The rats received a standard laboratory diet Teklad 2014C. The rats had unrestricted access to the diet.

The conditions of series [5]: in man after oral dosing; cited from earlier work.

Take `CCCN1CCC[C@@H]2Cc3c(ccc(OS(=O)(=O)O)c3OS(=O)(=O)O)C[C@H]21` [(Id-iiab), (4aR,10aR)-1-propyl-1,2,3,4,4a,5,10,10a-octahydrobenzo[g]quinoline-6,7-diyl bis(hydrogen sulfate)]: the “conversion to compound (I) in human hepatocytes” value in series [1] is recorded as “could not be detected”. In series [2], the “conversion to compound (I) in rat hepatocytes” value is given as “could not be detected”. Moreover, in series [3], the “stability in acidic conditions (in words)” value is “instability”. The “plasma profile of compound (I) after oral dosing (in words)” value in series [4] is “slower absorption rate avoiding rapid peak concentrations accompanied by a sustained exposure of compound (I) in plasma”.
For `CCCc1cc2c(s1)CN[C@@H]1CCc3cc(OC(C)=O)c(OC(C)=O)cc3[C@@H]21` [Adrogolide], in series [5], the oral bioavailability is listed as approximately 4%.
